Test results taken from US6559305B1, “Linezolid—crystal form II” (Pharmacia & Upjohn Company, priority 2000, dated 2003).

Assay: relative stability of linezolid crystal forms
Format: physicochemical
Conditions: temperature below about 85° (degrees Centigrade)

- stability of the crystal form relative to other solid forms (e.g. Form I): most stable form below about 85°
Compound: CC(=O)NC[C@H]1CN(c2ccc(N3CCOCC3)c(F)c2)C(=O)O1 [Crystal Form II, (S)-N-[[3-[3-fluoro-4-(4-morpholinyl)phenyl]-2-oxo-5-oxazolidinyl]methyl]acetamide]
